What was measured:
[1] = Ex vivo tissue distribution in normal ICR mice; conditions: for tissue radioactivity, Adrenal / tissue radioactivity, Blood / tissue radioactivity, Brain / tissue radioactivity, Femur / tissue radioactivity, Heart / tissue radioactivity, Kidney / tissue radioactivity, L. Intestine / tissue radioactivity, Liver / tissue radioactivity, Lung / tissue radioactivity, Muscle / tissue radioactivity, S. Intestine / tissue radioactivity, Spleen / tissue radioactivity, Stomach: normal ICR mice, tail-vein injection
Procedure: Purified [^18F]CB251 was reconstituted in a 10% ethanol-saline solution. Animals were killed at various times after tail-vein injection of [^18F]CB251 (0.74 MBq/0.2 mL per mouse) and the radioactivity concentrations were measured in various tissues upon dissection. […] The radioactivity concentration in the femur remained low for 120 min (1.19 ± 0.50%ID/g at 5 min post injection; 1.49 ± 0.80%ID/g at 120 min post injection).
Tissue distribution studies were performed in normal male ICR mice (7 weeks, 25-30 g) with tail-vein administration of [^18F]CB251 (0.74 MBq/mouse) dissolved in 10% ethanol in saline to a final volume of 200 μL. The animals (n = 5 for each time point) were euthanised with diethyl ether at 5, 15, 30, 60 and 120 min post injection. After the mice were euthanised, blood and other organs such as the heart, liver, lung, stomach, spleen, kidney, intestine, muscle, brain, adrenal and femur were removed, weighed and counted for radioactivity in a NaI (Tl) well counter (Wizard^TM3”, PerkinElmer). The injected dose was calculated from standards prepared from the injection solution. The accumulated radioactivity of all tissues is presented as the percentage of the injected dose per gram of tissue (%ID/g). All animal studies were performed with the approval of the Institutional Animal Care and Use Committee of the Seoul National University Bundang Hospital (SNUBH) and the methods were carried out in accordance with the approved guidelines.

[2] = type: in vitro ADME; conditions: 2 h
Procedure: The in vitro stability of [^18F]CB251 was assayed by monitoring both the radio-TLC and the radio-HPLC profiles to determine its radiochemical purity. To assess the in vitro serum stability, 100 μL of [^18F]CB251 in 10% EtOH/saline was incubated with 0.5 mL of human serum from a healthy volunteer for 2 h at 37 °C and the solution was analysed at 0, 10, 30, 60 and 120 min by a radio-TLC scanner using MeOH-CH2Cl2 (5:95) as the developing solvent. Separately, 100 μL of [^18F]CB251 in 10% EtOH/saline was also incubated with 0.9 mL of human serum from a healthy volunteer for 2 h at 37 °C. Aliquots (200 μL) were taken from the sample at time points of 0, 30, 60 and 120 min and mixed with absolute acetonitrile (200 μL). The mixture was centrifuged (3500 rpm, 5 min) to precipitate out serum proteins. The resulting supernatant including the authentic CB251 (1.0 mg/2.0 mL of CH3CN, 20 μL) was filtered through a 0.45 μm GH Polypro (GHP) membrane Disc filter before HPLC analysis to determine the fraction of intact radiotracer. Samples were analysed by HPLC (Waters, Xterra RP-18, 5 μm, 4.6 × 250 mm; eluant: 60% CH3CN/H2O; flow rate: 1 mL/min; guard column 10 × 10 mm).

[3] = Log D determination (n-octanol / sodium phosphate buffer pH 7.4); type: physicochemical; conditions: n-octanol / sodium phosphate buffer 0.15 M pH 7.4, measured four times
Procedure: After vortexing for 1 min, each tube was then stored for 3 min at room temperature and the phases were separated. Samples of each phase (100 μL) were counted for radioactivity. Log D is expressed as the logarithm of the ratio of the counts from n-octanol versus that of the sodium phosphate buffer.

With `CCCN(CCC)C(=O)Cc1c(-c2ccc(OCC[18F])cc2)nc2c(Cl)cc(Cl)cn12` [[^18F]CB251, 2-(2-(4-(2-[^18F]fluoroethoxy)phenyl)-6,8-dichloroimidazo[1,2-a]pyridin-3-yl)-N,N-dipropylacetamide] the “uptake of radioactivity in the femur” value ([1]; healthy mice, summary bound in text, indicates negligible defluorination) was < 2 %ID/g, the “uptake in TSPO-enriched tissues” value ([1]; male, ICR, mouse, in vivo) was > 22 %ID/g and the “tissue radioactivity, Adrenal” value ([1]; 5 min post injection) was 19.06 ± 5.48 %ID/g. The “tissue radioactivity, Adrenal” value ([1]; 15 min post injection) was 22.60 ± 5.00 %ID/g, the “tissue radioactivity, Adrenal” value ([1]; 30 min post injection) was 19.73 ± 3.42 %ID/g and the “tissue radioactivity, Adrenal” value ([1]; 60 min post injection) was 12.69 ± 5.62 %ID/g. The “tissue radioactivity, Adrenal” value ([1]; 120 min post injection) was 14.78 ± 8.26 %ID/g, the “tissue radioactivity, Blood” value ([1]; 5 min post injection) was 4.39 ± 0.78 %ID/g and the “tissue radioactivity, Blood” value ([1]; 15 min post injection) was 2.17 ± 0.40 %ID/g. For the same compound, the “tissue radioactivity, Blood” value ([1]; 30 min post injection) was 1.24 ± 0.26 %ID/g, the “tissue radioactivity, Blood” value ([1]; 60 min post injection) was 0.60 ± 0.12 %ID/g and the “tissue radioactivity, Blood” value ([1]; 120 min post injection) was 0.64 ± 0.26 %ID/g. The “tissue radioactivity, Brain” value ([1]; 5 min post injection) was 2.89 ± 0.23 %ID/g, the “tissue radioactivity, Brain” value ([1]; 15 min post injection) was 1.94 ± 0.24 %ID/g and the “tissue radioactivity, Brain” value ([1]; 30 min post injection) was 1.39 ± 0.13 %ID/g. For the same compound, the “tissue radioactivity, Brain” value ([1]; 60 min post injection) was 0.63 ± 0.24 %ID/g, the “tissue radioactivity, Brain” value ([1]; 120 min post injection) was 0.53 ± 0.23 %ID/g and the “tissue radioactivity, Femur” value ([1]; 5 min post injection) was 1.19 ± 0.50 %ID/g. The “tissue radioactivity, Femur” value ([1]; 15 min post injection) was 1.25 ± 0.41 %ID/g, the “tissue radioactivity, Femur” value ([1]; 30 min post injection) was 1.94 ± 0.36 %ID/g and the “tissue radioactivity, Femur” value ([1]; 60 min post injection) was 1.41 ± 0.64 %ID/g. For the same compound, the “tissue radioactivity, Femur” value ([1]; 120 min post injection) was 1.49 ± 0.80 %ID/g, the “tissue radioactivity, Heart” value ([1]; 5 min post injection) was 29.49 ± 2.36 %ID/g and the “tissue radioactivity, Heart” value ([1]; 15 min post injection) was 24.16 ± 4.67 %ID/g. For the same compound, the “tissue radioactivity, Heart” value ([1]; 30 min post injection) was 23.11 ± 5.16 %ID/g, the “tissue radioactivity, Heart” value ([1]; 60 min post injection) was 10.47 ± 4.50 %ID/g and the “tissue radioactivity, Heart” value ([1]; 120 min post injection) was 8.62 ± 4.57 %ID/g. For the same compound, the “tissue radioactivity, Kidney” value ([1]; 5 min post injection) was 22.17 ± 1.63 %ID/g, the “tissue radioactivity, Kidney” value ([1]; 15 min post injection) was 24.55 ± 5.11 %ID/g and the “tissue radioactivity, Kidney” value ([1]; 30 min post injection) was 23.19 ± 5.68 %ID/g. For the same compound, the “tissue radioactivity, Kidney” value ([1]; 60 min post injection) was 14.55 ± 5.74 %ID/g, the “tissue radioactivity, Kidney” value ([1]; 120 min post injection) was 15.60 ± 8.55 %ID/g and the “tissue radioactivity, L. Intestine” value ([1]; 5 min post injection) was 1.54 ± 0.19 %ID/g. For the same compound, the “tissue radioactivity, L. Intestine” value ([1]; 15 min post injection) was 1.53 ± 0.13 %ID/g, the “tissue radioactivity, L. Intestine” value ([1]; 30 min post injection) was 1.69 ± 0.21 %ID/g and the “tissue radioactivity, L. Intestine” value ([1]; 60 min post injection) was 1.37 ± 0.56 %ID/g. For the same compound, the “tissue radioactivity, L. Intestine” value ([1]; 120 min post injection) was 2.09 ± 1.07 %ID/g, the “tissue radioactivity, Liver” value ([1]; 5 min post injection) was 4.69 ± 0.66 %ID/g and the “tissue radioactivity, Liver” value ([1]; 15 min post injection) was 6.67 ± 1.10 %ID/g. The “tissue radioactivity, Liver” value ([1]; 30 min post injection) was 8.19 ± 1.59 %ID/g, the “tissue radioactivity, Liver” value ([1]; 60 min post injection) was 6.80 ± 2.64 %ID/g and the “tissue radioactivity, Liver” value ([1]; 120 min post injection) was 7.17 ± 2.99 %ID/g. The “tissue radioactivity, Lung” value ([1]; 5 min post injection) was 106.4 ± 8.61 %ID/g, the “tissue radioactivity, Lung” value ([1]; 15 min post injection) was 65.70 ± 11.3 %ID/g and the “tissue radioactivity, Lung” value ([1]; 30 min post injection) was 38.36 ± 3.97 %ID/g. The “tissue radioactivity, Lung” value ([1]; 60 min post injection) was 17.69 ± 5.77 %ID/g, the “tissue radioactivity, Lung” value ([1]; 120 min post injection) was 13.22 ± 6.10 %ID/g and the “tissue radioactivity, Muscle” value ([1]; 5 min post injection) was 0.83 ± 0.34 %ID/g. The “tissue radioactivity, Muscle” value ([1]; 15 min post injection) was 1.19 ± 0.22 %ID/g, the “tissue radioactivity, Muscle” value ([1]; 30 min post injection) was 2.01 ± 0.34 %ID/g and the “tissue radioactivity, Muscle” value ([1]; 60 min post injection) was 1.52 ± 0.59 %ID/g. The “tissue radioactivity, Muscle” value ([1]; 120 min post injection) was 1.45 ± 0.65 %ID/g, the “tissue radioactivity, S. Intestine” value ([1]; 5 min post injection) was 3.30 ± 0.73 %ID/g and the “tissue radioactivity, S. Intestine” value ([1]; 15 min post injection) was 4.54 ± 0.60 %ID/g. The “tissue radioactivity, S. Intestine” value ([1]; 30 min post injection) was 4.43 ± 0.90 %ID/g, the “tissue radioactivity, S. Intestine” value ([1]; 60 min post injection) was 3.43 ± 1.35 %ID/g and the “tissue radioactivity, S. Intestine” value ([1]; 120 min post injection) was 3.78 ± 1.96 %ID/g. For the same compound, the “tissue radioactivity, Spleen” value ([1]; 5 min post injection) was 17.63 ± 3.38 %ID/g, the “tissue radioactivity, Spleen” value ([1]; 15 min post injection) was 25.11 ± 2.16 %ID/g and the “tissue radioactivity, Spleen” value ([1]; 30 min post injection) was 23.27 ± 3.52 %ID/g. The “tissue radioactivity, Spleen” value ([1]; 60 min post injection) was 14.24 ± 4.47 %ID/g, the “tissue radioactivity, Spleen” value ([1]; 120 min post injection) was 13.82 ± 5.17 %ID/g and the “tissue radioactivity, Stomach” value ([1]; 5 min post injection) was 1.86 ± 0.48 %ID/g. For the same compound, the “tissue radioactivity, Stomach” value ([1]; 15 min post injection) was 2.13 ± 0.77 %ID/g, the “tissue radioactivity, Stomach” value ([1]; 30 min post injection) was 1.84 ± 0.49 %ID/g and the “tissue radioactivity, Stomach” value ([1]; 60 min post injection) was 0.98 ± 0.41 %ID/g. The “tissue radioactivity, Stomach” value ([1]; 120 min post injection) was 1.97 ± 0.95 %ID/g, the “radioactive parent remaining in human serum” value [2] was “greater than 99%” and the logD [3] was 3 ± 0.03.

Source: publication PMC4745082, “A Novel PET Imaging Probe for the Detection and Monitoring of Translocator Protein 18 kDa Expression in Pathological Disorders” (Scientific Reports, 2016)
